Reference: the supplement of paper PMC8671470

What was measured:
Assay in all cases: cell viability (% survival relative to DMSO control, bortezomib = 0%); higher = less cytotoxic
Conditions in all cases: 72 h
[1] = tested on: BV-173
In short: (§1)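 Seeding density for each of the 10 AML and 5 CML cell lines was titrated to the linear growth range. Cells went into 384-well plates pre-printed in duplicate with compounds at 1, 10, 100, 1000 or 10000 nM and were held for 72 h at 37 °C with 5% CO2. CellTiter-Glo luminescence then provided the readout. Percent survival is expressed relative to vehicle at 100% and a 10 µM positive control at 0%, averaged over duplicates.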

[2] = tested on: HEL
In short: as §1

[3] = tested on: HL-60
In short: as §1

[4] = tested on: Mono-Mac-6
In short: as §1

Row | Structure (SMILES) | cell viability ([1]; 1 nM) | cell viability ([1]; 10 nM) | cell viability ([1]; 100 nM) | cell viability ([1]; 1000 nM) | cell viability ([1]; 10000 nM) | cell viability ([2]; 1 nM) | cell viability ([2]; 10 nM) | cell viability ([2]; 100 nM) | cell viability ([2]; 1000 nM) | cell viability ([2]; 10000 nM) | cell viability ([3]; 1 nM) | cell viability ([3]; 10 nM) | cell viability ([3]; 100 nM) | cell viability ([3]; 1000 nM) | cell viability ([3]; 10000 nM) | cell viability ([4]; 1 nM) | cell viability ([4]; 10 nM) | cell viability ([4]; 100 nM) | cell viability ([4]; 1000 nM) | cell viability ([4]; 10000 nM)
1 | CN(C)C(=O)n1nnnc1Cc1ccc(-c2ccccc2)cc1 | 96.6% | 110% | 98.1% | 13.7% | 0.269% | 101% | 112% | 102% | 87.1% | 1.09% | 114% | 136% | 106% | 108% | 2.17% | 95.9% | 102% | 102% | 88.6% | 0.0787%
2 | Cc1[nH]n(-c2ccccc2)c(=O)c1C1(C(F)(F)F)C(=O)N(c2ccccc2)C2=C1C(=O)CC(C)(C)C2 (stereo not given) | 103% | 89.2% | 128% | 99.8% | 111% | 94.3% | 104% | 108% | 90.8% | 90.9% | 121% | 120% | 104% | 77.6% | 103% | 115% | 98.1% | 105% | 97.1% | 101%
3 | c1ccc2nc(-c3nnc4sc(-c5cnccn5)nn34)ccc2c1 | 103% | 105% | 103% | 100% | 96.1% | 95.3% | 96% | 93.7% | 95.1% | 99.4% | 108% | 100% | 102% | 67.9% | 103% | 111% | 108% | 108% | 91.1% | 98.5%
4 | CC(C)(CS(=O)(=O)[O-])NC(=O)CC[N+](C)(C)CCO | 88.4% | 97.7% | 91.6% | 91.3% | 113% | 101% | 106% | 93.8% | 98.8% | 104% | 116% | 118% | 97.8% | 78.4% | 97.8% | 86.8% | 105% | 90.1% | 91.6% | 105%
5 | C[C@H]1O[C@H](O[C@H]2[C@H](O)[C@@H](O)[C@@H](O[C@H]3[C@H](O)[C@@H](O)C(O)O[C@@H]3CO)O[C@@H]2CO)[C@H](O)[C@@H](O)[C@@H]1N[C@H]1C=C(CO)[C@@H](O)[C@H](O)[C@H]1O (mixture of isomers) [Acarbose] | 95.6% | 99.7% | 110% | 103% | 83.4% | 117% | 111% | 114% | 88.8% | 98.8% | 125% | 111% | 122% | 99.1% | 106% | 101% | 95.6% | 102% | 111% | 87%
6 | CC(=O)N1CCN(c2ccc(OC[C@@H]3CO[C@@](Cn4ccnc4)(c4ccc(Cl)cc4Cl)O3)cc2)CC1 (racemic) [Ketoconazole] | 90.8% | 78.3% | 100% | 92.6% | 78.8% | 104% | 105% | 94.1% | 112% | 67.2% | 104% | 109% | 97.8% | 112% | 75.5% | 93.6% | 91.8% | 95.6% | 94% | 90.1%
7 | OC[C@H]1OC(O)C[C@@H](O)[C@@H]1O (stereo not given in full) [2-deoxyglucose] | 126% | 107% | 109% | 90.4% | 106% | 123% | 113% | 112% | 93.3% | 95.1% | 82.5% | 92% | 106% | 102% | 94.7% | 65.6% | 99.3% | 102% | 89.4% | 99.2%
8 | O=C(C(=O)c1ccc(Br)cc1)c1ccc(Br)cc1 [4,4'-Dibromobenzil] | 104% | 117% | 112% | 105% | 117% | 96.7% | 96.8% | 120% | 114% | 115% | 91.8% | 99.6% | 93.4% | 98.1% | 88.5% | 109% | 101% | 94% | 109% | 97.9%
9 | NS(=O)(=O)c1ccc(NC(=O)Cc2ccccc2)cc1 [4-(2-Phenylacetamido)Benzenesulfonamide] | 118% | 94.8% | 105% | 114% | 92.9% | 106% | 108% | 78.6% | 99% | 106% | 162% | 97.6% | 115% | 106% | 89.7% | 87.8% | 108% | 95.9% | 102% | 96.9%
10 | NCc1ccc(S(N)(=O)=O)cc1 [4-Homosulfanilamide] | 96.7% | 85.9% | 91.7% | 96.6% | 97.6% | 94.2% | 71.2% | 99.3% | 98% | 106% | 88.1% | 97% | 109% | 82.1% | 110% | 107% | 101% | 106% | 96% | 92.3%
11 | NCc1ccc(-c2cccnc2)s1 [(5-Pyrid-3-YLTHIEN-2-YL)METHYLAMINE] | 113% | 102% | 98.7% | 104% | 87.2% | 105% | 103% | 104% | 109% | 104% | 99.3% | 107% | 103% | 115% | 121% | 108% | 103% | 95.7% | 104% | 89%
12 | CC(=O)N[C@@H](CS)C(=O)O [Acetylcysteine] | 109% | 96.7% | 92.2% | 98.9% | 95.2% | 110% | 90.4% | 90% | 113% | 104% | 107% | 93.1% | 93.5% | 125% | 122% | 114% | 96.3% | 97% | 100% | 105%
13 | CCCCC/C=C\C/C=C\C/C=C\C/C=C\CCCC(=O)C(F)(F)F [Arachidonyl trifluoromethyl ketone] | 103% | 96.6% | 95.7% | 92% | 76.6% | 97.5% | 89.6% | 118% | 98.8% | 80.8% | 98.9% | 100% | 108% | 93.9% | 96.5% | 98.5% | 97.9% | 102% | 80.7% | 57.7%
14 | O=[As]O[As]=O (stereo not given) [Arsenic trioxide] | 96.1% | 97.2% | 105% | 95.5% | 28.4% | 98.8% | 102% | 120% | 96.8% | 74.9% | 108% | 105% | 109% | 96.9% | 55.6% | 98.2% | 104% | 109% | 102% | 43.2%
15 | C=C1C(=O)O[C@H](CCCCCCCC)[C@H]1C(=O)O [C75] | 106% | 94% | 109% | 107% | 105% | 101% | 95.7% | 105% | 111% | 121% | 89.1% | 80.8% | 106% | 86% | 120% | 98.1% | 99.9% | 103% | 94.4% | 98.9%
16 | O=NN(CCCl)C(=O)NCCCl [Carmustine] | 102% | 120% | 105% | 95.3% | 78.5% | 98.3% | 114% | 111% | 103% | 101% | 98.8% | 101% | 98.1% | 97.8% | 101% | 106% | 97.8% | 99.8% | 109% | 117%
17 | O[C@H]1[C@H](O)[C@@H](O)CN2CC[C@H](O)[C@H]12 [Castanospermine] | 123% | 105% | 95.9% | 82.4% | 88.4% | 113% | 109% | 105% | 126% | 112% | 94.2% | 90.7% | 114% | 132% | 143% | 100% | 97.3% | 105% | 95.1% | 97.6%
18 | N=C(N)c1ccc(N=NNc2ccc(C(=N)N)cc2)cc1 [Diminazene] | 104% | 103% | 106% | 106% | 103% | 103% | 109% | 111% | 93.8% | 111% | 83% | 102% | 123% | 116% | 96.6% | 97% | 100% | 107% | 105% | 98.2%
19 | OCCN(CCO)c1nc(N2CCCCC2)c2nc(N(CCO)CCO)nc(N3CCCCC3)c2n1 [Dipyridamole] | 90.4% | 98.2% | 92.4% | 78.6% | 38.8% | 87.6% | 101% | 102% | 105% | 77.7% | 129% | 65.2% | 105% | 61.6% | 93.8% | 98% | 103% | 98.5% | 97.1% | 77.4%
20 | Cc1cc(O)c2c(c1)C(=O)c1cc(O)cc(O)c1C2=O [Emodin] | 88.8% | 111% | 99.8% | 74.6% | 89.8% | 105% | 114% | 98.5% | 89.8% | 115% | 90.5% | 97.8% | 124% | 88.2% | 109% | 92.1% | 106% | 97.3% | 102% | 81.7%
21 | N#Cc1ccc(C2CCCc3cncn32)cc1 (stereo not given) [Fadrozole] | 103% | 95.3% | 95% | 116% | 106% | 106% | 95.1% | 93.5% | 96.9% | 111% | 108% | 91.7% | 88% | 85.9% | 99.2% | 102% | 93.4% | 97.2% | 101% | 112%
22 | Cc1nc(-c2ccc(OCC(C)C)c(C#N)c2)sc1C(=O)O [Febuxostat] | 103% | 101% | 79.9% | 99.7% | 82.6% | 97% | 97.8% | 106% | 105% | 84.5% | 103% | 85.2% | 114% | 91.3% | 99.3% | 91.7% | 102% | 99% | 92.9% | 92.7%
23 | OC[C@H]1N[C@@H](c2c[nH]c3c(O)ncnc23)[C@H](O)[C@@H]1O [Forodesine] | 95.1% | 83.9% | 103% | 91.1% | 89.1% | 103% | 95.9% | 102% | 92.6% | 88.6% | 92.1% | 98% | 95.8% | 102% | 90.2% | 109% | 87.5% | 107% | 108% | 88.5%
24 | O=c1oc2c(cc1O)oc(=O)c1cc(O)c(O)c(O)c12 [Galloflavin] | 91% | 97.5% | 99.4% | 108% | 118% | 99.7% | 98.6% | 122% | 106% | 107% | 108% | 101% | 114% | 180% | 186% | 92.9% | 99.7% | 113% | 113% | 100%
25 | N[C@@H](CCC(=O)N[C@@H](CS)C(=O)NCC(=O)O)C(=O)O [Glutathione] | 102% | 99.4% | 94.4% | 101% | 91.9% | 106% | 95.7% | 96.1% | 94.2% | 111% | 77.8% | 94.8% | 98.7% | 70.5% | 105% | 96.2% | 89.5% | 84.9% | 103% | 89.9%
26 | CC1Cc2ccccc2N1NC(=O)c1ccc(Cl)c(S(N)(=O)=O)c1 (stereo not given) [Indapamide] | 116% | 93.9% | 95.3% | 99.7% | 91.9% | 107% | 112% | 101% | 105% | 103% | 87.7% | 95% | 81.6% | 93% | 102% | 99.6% | 112% | 112% | 110% | 90.9%
27 | COc1ccc2c(c1)c(CC(=O)O)c(C)n2C(=O)c1ccc(Cl)cc1 [Indomethacine] | 89.5% | 94.1% | 105% | 112% | 81.8% | 109% | 92.8% | 94.3% | 92.7% | 95.5% | 124% | 104% | 100% | 84.6% | 147% | 97.9% | 93.8% | 99.8% | 112% | 92.3%
